# Assay results as given in US20200399329A1, “ANTIMICROBIAL PEPTIDES” (priority 2015, published 2020).
# Where a SMILES comes first, the peptide text is derived from it.
# Columns and labels:
# [1] = Preliminary IP safety in mice; assay type: in vivo
# Procedure: IP administration of OMN6: OMN6 was administered IP to mice in order to evaluate and quantitate any toxic effects if present. OMN6 peptide was administered via intraperitoneal injection according to concentrations and groups detailed in Table 10.
# Mice used in this experiment: Outbred Hsd: ICR (CD-1®)—weight 18-20 g. Saline solution (0.9% NaCl) supplemented with 4 mM C2H3NaO2 (sodium acetate) as sham treatment, or OMN6 dissolved in saline were administered as specified in […] A total volume of 100 μl was administered to each animal.
# Mortality of mice in experiment group was monitored in comparison to a Sham (CTRL) group. Food and water consumption, post treatment, was monitored by individual weight measurements once every two days. At the end of the experiment, blood was taken from all animals, and a 200 μl volume of complete blood was separated and plasma was analyzed for erythrocyte hemolysis.
# Experimental Map: • 1. Mice (six per group) were given a single-dose administration on day 1, according to group specification (Table 10). Food and water consumption (weight analysis) along with mortality of mice in all groups were monitored for 3 days post treatment. At the end of the four day trial, the animals were sacrificed. • 2. Free Hgb (hemoglobin) assay was performed on day 4, on all samples from all groups, for erythrocyte hemolysis analysis. • 3. Water/food availability, temperature and other conditions remained unchanged between the groups for the entire four day trial. • 4. The Erythrocyte hemolysis analysis was performed via hemoglobin assay kit (Sigma-Aldrich, 3 Plaut St. Rehovot, Israel).
# [2] = system: E. coli; assay: Antimicrobial activity after pre-treatment of peptide with Proteinase-K; assay type: cell-based; conditions: 12.5 μM peptide pre-treated with 20 ng ProtK for 2 hours at 37° C., 18 hours
# Procedure: The susceptibility of OMN6/CecA to proteolytic degradation was assessed and the effects of stability on activity were determined. Native peptide-CecA and engineered peptide-OMN6 were incubated with 20 ng of Proteinase-K (ProtK) at 37° C. for two hours (left bars and right bars, respectively). E. coli at 500,000 CFU/ml were incubated for 18 hours with either CecA or OMN6 pretreated with ProtK. After the incubation, bacterial survival was determined via absorption at OD600 nm and via CFU count on agar plates.
# [3] = Preliminary topical safety in mice; assay type: in vivo; conditions: topical single dose 0.5-4 mg/kg
# Procedure: The antimicrobial peptide OMN6 was administered to mice in order to evaluate and quantify whether toxic effects are present. OMN6 peptide (C195H332N56O49S3) was administered topically according to concentrations and groups detailed in Table 9.
# Mice approved for this experiment: Outbred Hsd:ICR (CD-1®)—weight 18-20 g. Saline solution (0.9% NaCl) as sham treatment or OMN6 dissolved in saline were administered directly onto the skin of mice after the hair was shaved. A total volume of 16 μl was administered to each animal.
# In this experiment, the peptide OMN6 of the invention was administered in a single dose, at four different concentrations (mg/kg). Mortality of mice in all experiment groups was monitored in comparison to a Sham (CTRL) group. Food and water consumption, post treatment, was monitored by individual weight measurements once every two days. At the end of the experiment, blood was taken from all animals and 200 μl of blood was separated and plasma was analyzed for erythrocyte hemolysis. • Experimental Map: • 1. Mice (six per group) were given a single-dose administration on day 1, according to group specification (Table 9). Food and water consumption (weight analysis) along with mortality of mice in all groups were monitored for four days post treatment. At the end of the five day trial, the animals were sacrificed. • 2. Free Hgb (hemoglobin) assay was performed on day 5, on all samples from all groups, for erythrocyte hemolysis analysis. • 3. Water/food availability, temperature and other conditions remained unchanged between the groups for the entire five day trial. • 4. Erythrocyte hemolysis analysis was performed via hemoglobin assay kit (Sigma-Aldrich, 3 Plaut St. Rehovot, Israel).
# [4] = system: E. coli; assay: E. coli growth monitored via OD600 nm with CecA or OMN6; assay type: cell-based
# Procedure: An assay was conducted in order to compare the antimicrobial activity of the native peptide Cecropin A (CecA) vs. a peptide of the invention OMN6. E. coli bacteria were cultured with CecA or OMN6 in concentration of 12.5 μM for 17-20 hours. The growth of the bacteria was continuously monitored via spectrophotometry at 600 nm. As bacterial growth progresses, OD600 nm values rise, and where the growth is inhibited OD600 nm values remain constant. […] The bacteria completely overcame the inhibitory effect of CecA after 10 hours. The bacteria then continued to thrive and grow to density similar to that of the CTRL group.
# [5] = IP single dose 16 mg/kg, four-day experiment
structure (smiles),measurement,setting,value
CC[C@H](C)[C@H](NC(=O)CNC(=O)[C@H](CC(=O)O)NC(=O)[C@H](CCCNC(=N)N)NC(=O)[C@@H](NC(=O)[C@H](CC(N)=O)NC(=O)[C@H](CCC(N)=O)NC(=O)CNC(=O)[C@@H](NC(=O)[C@H](CCCCN)NC(=O)[C@H](CCC(=O)O)NC(=O)[C@@H](NC(=O)[C@H](CCCCN)NC(=O)[C@H](CCCCN)NC(=O)[C@H](Cc1ccccc1)NC(=O)[C@H](CC(C)C)NC(=O)[C@H](CCCCN)NC(=O)[C@H](Cc1c[nH]c2ccccc12)NC(=O)[C@H](CCCCN)NC(=O)[C@H](CS)NC(=O)[C@@H](N)CCSC)[C@@H](C)CC)C(C)C)[C@@H](C)CC)C(=O)N[C@H](C(=O)N[C@@H](CCCCN)C(=O)N[C@@H](C)C(=O)NCC(=O)N1CCC[C@H]1C(=O)N[C@@H](C)C(=O)N[C@H](C(=O)N[C@@H](C)C(=O)N[C@H](C(=O)N[C@H](C(=O)NCC(=O)N[C@@H](CCC(N)=O)C(=O)N[C@@H](C)C(=O)N[C@H](C(=O)N[C@@H](CCC(N)=O)C(=O)N[C@H](C(=O)N[C@@H](C)C(=O)N[C@@H](CCCCN)C(=O)N[C@@H](CS)C(N)=O)[C@@H](C)CC)[C@@H](C)O)C(C)C)C(C)C)C(C)C)[C@@H](C)CC [OMN6] (H-MCKWKLFKKIEKVGQNIRDGIIKAGPAVAVVGQATQIAKC-NH2; N-terminus and C-terminus assumed),Histological analysis,[1]; IP single dose 16 mg/kg (data not shown),No evidence of pathological changes or aberrations
same,Hemolysis of erythrocytes (Free Hgb assay),"[1]; IP single dose 16 mg/kg, day 4",No evidence of hemolysis
same,"Clinical signs (diarrhea, bloody diarrhea, stand-on-end hair, apathy or restlessness)",[1]; [5],not observed
same,Mortality,[1]; [5],not observed
same,Toxic or otherwise adverse effects,[1]; [5],does not exert any toxic or otherwise adverse effects
same,Weight-loss,[1]; [5],not observed
same,Bacterial survival/growth as percent of CTRL group,[2],less than 10%
same,"Clinical signs (diarrhea, bloody diarrhea, stand-on-end hair, apathy or restlessness)",[3]; 5-day experiment,not observed
same,Mortality,[3]; 5-day experiment,not observed
same,Toxic or otherwise adverse effects,[3]; 5-day experiment,does not exert any toxic or otherwise adverse effects
same,Weight-loss,[3]; 5-day experiment,not observed
same,Hemolysis of erythrocytes (Free Hgb assay),[3]; day 5,No evidence of hemolysis
same,Inhibition of E. coli growth (OD600 nm),"[4]; 12.5 μM, 17-20 hours",completely inhibited bacterial growth
same,Duration of growth inhibition,"[4]; 12.5 μM, E. coli",more than 17 hours
same,Colonies after plating (bactericidal nature),"[4]; E. coli, experiment groups of Example 2 plated",no colonies present
